Assay results: PubChem BioAssay AID1259407 (Chemical Carcinogenesis Research Information System (CCRIS), 2018)
Activity calls are given as the source filed them. No rule for the calls is given here.

System: CCRIS mutagenicity, Ames/micronucleus/aberration tests
Experiment: CCRIS mutagenicity studies
[1] = Test System: AMES SALMONELLA TYPHIMURIUM, Strain/Indicator: TA98, Metabolic Activation: NONE, Method: PREINCUBATION
[2] = Test System: AMES SALMONELLA TYPHIMURIUM, Strain/Indicator: TA98, Metabolic Activation: NONE, Method: STANDARD PLATE
[3] = Test System: AMES SALMONELLA TYPHIMURIUM, Strain/Indicator: TA100, Metabolic Activation: NONE, Method: PREINCUBATION
[4] = Test System: AMES SALMONELLA TYPHIMURIUM, Strain/Indicator: TA100, Metabolic Activation: NONE, Method: STANDARD PLATE
[5] = Test System: AMES SALMONELLA TYPHIMURIUM, Strain/Indicator: TA1537, Metabolic Activation: NONE, Method: STANDARD PLATE
[6] = Test System: AMES SALMONELLA TYPHIMURIUM, Strain/Indicator: TA1538, Metabolic Activation: NONE, Method: STANDARD PLATE

Measured: mutagenic call

O=C1OC2(c3ccccc31)c1cc(I)c(O)c(I)c1Oc1c2cc(I)c(O)c1I
inactive: Test System: AMES SALMONELLA TYPHIMURIUM, Strain/Indicator: TA97A, Metabolic Activation: NONE, Method: PREINCUBATION inactive; negative | Test System: AMES SALMONELLA TYPHIMURIUM, Strain/Indicator: TA97A, Metabolic Activation: RAT CECAL CELL-FREE EXTRACTS, Method: PREINCUBATION inactive; negative | Test System: AMES SALMONELLA TYPHIMURIUM, Strain/Indicator: TA97A, Metabolic Activation: RAT, LIVER, S9, AROCLOR 1254, Method: PREINCUBATION inactive; negative | [1] inactive; negative | [2] inactive; negative | Test System: AMES SALMONELLA TYPHIMURIUM, Strain/Indicator: TA98, Metabolic Activation: RAT CECAL CELL-FREE EXTRACTS, Method: PREINCUBATION inactive; negative | Test System: AMES SALMONELLA TYPHIMURIUM, Strain/Indicator: TA98, Metabolic Activation: RAT, LIVER, S9, AROCLOR 1254, Method: PREINCUBATION inactive; negative | Test System: AMES SALMONELLA TYPHIMURIUM, Strain/Indicator: TA98, Metabolic Activation: RAT, LIVER, S9, AROCLOR 1254, Method: STANDARD PLATE inactive; negative | Test System: AMES SALMONELLA TYPHIMURIUM, Strain/Indicator: TA98, Metabolic Activation: S9, Method: PREINCUBATION inactive; negative | [3] inactive; negative | [4] inactive; negative | Test System: AMES SALMONELLA TYPHIMURIUM, Strain/Indicator: TA100, Metabolic Activation: RAT CECAL CELL-FREE EXTRACTS, Method: PREINCUBATION inactive; negative | Test System: AMES SALMONELLA TYPHIMURIUM, Strain/Indicator: TA100, Metabolic Activation: RAT, LIVER, S9, AROCLOR 1254, Method: PREINCUBATION inactive; negative | Test System: AMES SALMONELLA TYPHIMURIUM, Strain/Indicator: TA100, Metabolic Activation: RAT, LIVER, S9, AROCLOR 1254, Method: STANDARD PLATE inactive; negative | Test System: AMES SALMONELLA TYPHIMURIUM, Strain/Indicator: TA100, Metabolic Activation: S9, Method: PREINCUBATION inactive; negative | Test System: AMES SALMONELLA TYPHIMURIUM, Strain/Indicator: TA102, Metabolic Activation: NONE, Method: PREINCUBATION inactive; negative | Test System: AMES SALMONELLA TYPHIMURIUM, Strain/Indicator: TA102, Metabolic Activation: RAT CECAL CELL-FREE EXTRACTS, Method: PREINCUBATION inactive; negative | Test System: AMES SALMONELLA TYPHIMURIUM, Strain/Indicator: TA102, Metabolic Activation: RAT, LIVER, S9, AROCLOR 1254, Method: PREINCUBATION inactive; negative | Test System: AMES SALMONELLA TYPHIMURIUM, Strain/Indicator: TA104, Metabolic Activation: NONE, Method: PREINCUBATION inactive; negative | Test System: AMES SALMONELLA TYPHIMURIUM, Strain/Indicator: TA104, Metabolic Activation: RAT CECAL CELL-FREE EXTRACTS, Method: PREINCUBATION inactive; negative | Test System: AMES SALMONELLA TYPHIMURIUM, Strain/Indicator: TA104, Metabolic Activation: RAT, LIVER, S9, AROCLOR 1254, Method: PREINCUBATION inactive; negative | Test System: AMES SALMONELLA TYPHIMURIUM, Strain/Indicator: TA1535, Metabolic Activation: NONE, Method: STANDARD PLATE inactive; negative | Test System: AMES SALMONELLA TYPHIMURIUM, Strain/Indicator: TA1535, Metabolic Activation: RAT, LIVER, S9, AROCLOR 1254, Method: STANDARD PLATE inactive; negative | [5] inactive; negative | Test System: AMES SALMONELLA TYPHIMURIUM, Strain/Indicator: TA1537, Metabolic Activation: RAT, LIVER, S9, AROCLOR 1254, Method: STANDARD PLATE inactive; negative | [6] inactive; negative | Test System: AMES SALMONELLA TYPHIMURIUM, Strain/Indicator: TA1538, Metabolic Activation: RAT, LIVER, S9, AROCLOR 1254, Method: STANDARD PLATE inactive; negative | Test System: MOUSE LYMPHOMA, Strain/Indicator: L5178Y (TK+/TK-), Metabolic Activation: RAT, LIVER, S9, AROCLOR 1254, Method: SUSPENSION/PLATE inactive; negative

[Be+2]
inactive: [1] inactive; negative | Test System: AMES SALMONELLA TYPHIMURIUM, Strain/Indicator: TA98, Metabolic Activation: RAT, LIVER, S-9, (10%), Method: PREINCUBATION inactive; negative | [3] inactive; negative | Test System: AMES SALMONELLA TYPHIMURIUM, Strain/Indicator: TA100, Metabolic Activation: RAT,LIVER, S-9 (10%), Method: PREINCUBATION inactive; negative

O=C1c2cccc3ccc4ccc5cccc1c5c4c23
inactive: [2] inactive; negative | [4] inactive; negative

CN(C)CCn1cc[n+](C)c1/C=N/O
inactive: Test System: AMES SALMONELLA TYPHIMURIUM, Strain/Indicator: TA97, Metabolic Activation: NONE, Method: STANDARD PLATE inactive; negative | Test System: AMES SALMONELLA TYPHIMURIUM, Strain/Indicator: TA97, Metabolic Activation: S-9, Method: STANDARD PLATE inactive; negative | [4] inactive; negative | Test System: AMES SALMONELLA TYPHIMURIUM, Strain/Indicator: TA100, Metabolic Activation: S-9, Method: STANDARD PLATE inactive; negative | Test System: AMES SALMONELLA TYPHIMURIUM, Strain/Indicator: TA104, Metabolic Activation: NONE, Method: STANDARD PLATE inactive; negative | Test System: AMES SALMONELLA TYPHIMURIUM, Strain/Indicator: TA104, Metabolic Activation: S-9, Method: STANDARD PLATE inactive; negative | [5] inactive; negative | Test System: AMES SALMONELLA TYPHIMURIUM, Strain/Indicator: TA1537, Metabolic Activation: S-9, Method: STANDARD PLATE inactive; negative | [6] inactive; negative | Test System: AMES SALMONELLA TYPHIMURIUM, Strain/Indicator: TA1538, Metabolic Activation: S-9, Method: STANDARD PLATE inactive; negative
